Measurements published in patent US20090023753A1, “1,3-Thiazole-5-Carboxamides Useful as Cancer Chemotherapeutic Agents” (Bayer HealthCare AG, priority 2005, published 2009).

Experiments:
[1] = system: P-AKT/PKB in H209 small cell lung carcinoma cells; assay: P-AKT/PKB Cytoblot Assay with H209 cells (SCF-stimulated); format: cell-based; conditions: Homo sapiens, NCI-H209, 1 hour compound incubation, SCF 25 ng/mL for 5 minutes, p-(S473) AKT
Source text: The utility of the compounds of the present invention can be illustrated, for example, by their activity in the P-AKT/PKB Cytoblot Assay described below. The involvement of the P-AKT/PKB[PI3K/AKt] pathway as a target for cancer chemotherapy has been recognized in the art. For example, see F. Chang et al, Involvement of PI3K/Akt pathway in cell cycle progression, apoptosis, and neoplastic transformation: a target for cancer chemotherapy, Leukemia, 2003, 17: p. 590-603; K. A. West et al, Activation of the PI3K/Akt pathway and chemotherapeutic resistance, Drug Resistance Updates, 2002, 5: p. 234-248; and P. Sen et al, Involvement of the Akt/PKB signaling pathway with disease processes, Molecular and Cellular Biochemistry, 2003, 253: p. 241-246.
P-AKT/PKB Cytoblot Assay Protocol with H209 Cells
H209 small cell lung carcinoma cells in log phase were plated at 50,000 cells/well in 96-well poly-lysine coated, clear bottom/black-sided plates (Becton-Dickinson, USA Cat # 354640) in 100 Ill RPMI medium containing 0.1% (w/v) BSA, and incubated overnight at 37° C. in 5% CO2 incubator. The following day, compounds (10 mM stock solutions in DMSO) were added to the plates to generate final concentrations of 0.0, 0.01, 0.03, 0.1, 0.3, 1.0, 3.0 and 10 μM for IC50 determinations and incubated for 1 hour at 37° C. Cells were then left untreated or stimulated with Stem Cell Factor (SCF: Biosource Cat # PHC2116) at a final concentration of 25 ng/mL for 5 minutes at 37° C. in 5% CO2 incubator. The media was then removed using a vacuum manifold and the cells were washed once with Tris Buffered Saline (TBS). Cells were then fixed by adding 200 μl of cold 3.7% (v/v) formaldehyde in TBS to each well for 15 minutes at 4° C. After removal of the formaldehyde, the cells were treated with the addition of 50 μl of methanol (at −20° C.) to each well for 5 minutes. After removal of the methanol, 200 μl of 1% (w/v) BSA in TBS was added to each well to block non-specific antibody binding sites and the plate was incubated at room temperature for 30 minutes.
After removal of the blocking buffer, 50 μl of p-(S473) AKT rabbit polyclonal antibody (Cell Signaling, USA Cat # 9277S) was added at a dilution of 1:250 in 0.1% (w/v) BSA in TBS, and the plate was incubated at room temperature for 1 hour. Plates were then washed 3 times with cold TBS containing 0.05% (v/v) Tween 20 (TBS-T) and 100 μl of Horseradish peroxidase (HRP)-conjugated goat-anti-rabbit antibody (Amersham, USA Cat # NA934V) at a dilution of 1:250 in TBS-T was added and the plate was incubated at room temperature for 1 h. After washing with ice-cold TBS-T four times, 100 μl of Enhanced Chemiluminescence (ECL) reagent (Amersham, USA Cat# RPN2209) was added to each well and mixed on a mini-orbital shaker for 1 min. The plate was then read on a Perkin Elmer Victor 5 Multilabel Counter (#1420-0421).

[2] = system: phospho-ERK in MDA-MB-231 cells; assay: Phospho-ERK Cytoblot Assay with MDA-MB 231 cells; format: cell-based; conditions: Homo sapiens, 1 hour compound incubation, phospho-p44/42 MAP kinase (Thr202/Tyr204)
Source text: The utility of the compounds of the present invention can also be illustrated, for example, by their activity in the phosph-ERK Assay described below. Growth-factor induction of the RAS/MEK/ERK signaling pathway leads to the induction of phosphorylation of a number of proteins including phospho-ERK (See C. J. Marshall, MAP kinase kinase kinase, MAP kinase kinase and MAP kinase, Current Opinions in Genetic Development, 1994, 4: p. 82-89). The importance of this pathway in cancer biology has been recognized in the art. Activation of the RAS signaling pathway is an important mechanism by which cancer develops (R. Herrera, et al, Unraveling the complexities of the Raf/MAP kinase pathway for pharmacological intervention, Trends Mol. Med., 2002, 8: p. S27-31). Mutational activation of RAS or downstream effectors as well as growth factor induction of this pathway leads to increased tumor cell proliferation and survival (A. A. Adjei, Blocking oncogenic RAS signaling for cancer therapy, J. Natl. Cancer Inst., 2001, 93(14): p. 1062-1074; J Schlessinger, Cell signaling by receptor tyrosine kinases, Cell, 2000, 103: p. 211-225). Phospho-ERK Cytoblot Assay Protocol with MDA-MB 231 Cells MDA-MB-231 cells in log phase were plated at 25,000 cells/well in 96-well opaque plates (Falcon, USA Cat # 353296) in 100 μL RPMI medium containing 10% (w/v) FBS, and incubated overnight at 37° C. in 5% CO2 incubator. The following day, the growth medium was removed from the plate by aspiration and replaced with RPMI medium containing 0.1% BSA and example compounds diluted to generate final concentrations of 0.0, 0.001, 0.003, 0.01, 0.03, 0.1, 0.3, 1 and 3 μM. Cells were incubated with compound for 1 hour at 37° C. in a 5% CO2 incubator. The media was then removed from the plate by aspiration and the cells were washed once with 180 μL/well cold Tris Buffered Saline (TBS). After removal of the wash buffer, the cells were fixed by adding 180 μL of cold 3.7% (v/v) formaldehyde in TBS to each well for 1 hour at 4° C. After removal of the formaldehyde, the cells were treated with the addition of 60 μL of −20° C. methanol to each well for 5 minutes at 4° C. The methanol was removed and the cells were washed with 180 μL/well of 5% (w/v) BSA in TBS. To block non-specific antibody binding sites, each well was treated with 180 μL/well 5% BSA (w/v) in TBS for thirty minutes at room temperature. After removal of the blocking buffer, 50 μL of an anti-phospho-p44/42 MAP kinase (Thr202/Tyr204) rabbit polyclonal antibody (Cell Signaling, USA Cat # 9101) was added to each well at a dilution of 1:1000 in 5% (w/v) BSA in TBS, and the plate was incubated at 4° C. overnight. Plates were then washed three times with 300 μL/well TBS at room temperature. The plates were then incubated with 50 μL of Horseradish peroxidase (HRP)-conjugated goat-anti-rabbit antibody (Amersham, USA Cat. # NA934V) at a dilution of 1:1000 in 5% BSA-TBS at room temperature for 1 hr. After washing the plate three times with 300 μL/well TBS, 60 μL of Enhanced Chemiluminescence (ECL) reagent (Amersham, USA Cat# RPN2209) was added to each well and incubated at room temperature for five minutes. The plate was then read on a Perkin Elmer Victor 5 Multilabel Counter (#1420-0421). […] The utility of the compounds of the present invention can also be illustrated, for example, by their activity in the flk-1 (murine VEGFR2) Assay described below. The VEGF-VEGFR2 signaling pathway has been extensively characterized as an important regulator of angiogenesis and tumor angiogeneisis (See G. Yancopoulos et al, Vascular-specific growth factors and blood vessel formation, Nature, 2000, 407: p. 242-248; D. Shweiki et al, Induction of vascular endothelial growth factor expression by hypoxia and by glucose deficiency in multi cell spheroids: Implications for tumor angiogenesis, Proc. Natl. Acad. Sci, 1995, 92: p. 768-772). Inhibition of tumor cell growth by blocking this pathway has been well documented in the art. […]

[3] = molecular target: T1, Flk-1 (murine VEGFR-2) kinase domain (Mus musculus, UniProt P35918); assay: Flk-1 (murine VEGFR-2) Biochemical Assay (TR-FRET); conditions: 10 μM ATP, 7 nM Flk-1 (kinase domain)
T1 construct: 7 nM Flk-1 (kinase domain)
T1 sequence (P35918 832-1160 limits assumed): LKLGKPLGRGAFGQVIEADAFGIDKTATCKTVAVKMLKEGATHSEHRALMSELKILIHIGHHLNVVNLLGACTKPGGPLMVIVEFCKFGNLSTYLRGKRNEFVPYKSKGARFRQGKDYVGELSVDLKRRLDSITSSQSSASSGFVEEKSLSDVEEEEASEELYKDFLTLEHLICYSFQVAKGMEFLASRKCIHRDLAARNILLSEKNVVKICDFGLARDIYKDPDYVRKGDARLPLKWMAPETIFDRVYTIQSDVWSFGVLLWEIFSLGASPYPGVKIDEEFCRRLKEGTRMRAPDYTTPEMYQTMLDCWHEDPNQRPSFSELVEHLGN

| SMILES | IC50 [1] [nM] | IC50 [2] [nM] | IC50 [3] [nM] |
| --- | --- | --- | --- |
| CNC(=O)Nc1cc(CNc2ncsc2C(=O)Nc2ccc3c(c2)OC(F)(F)C(F)(F)O3)ccn1 [Example 20, 4-{[(2-{[(methylamino)carbonyl]amino}pyridin-4-yl)methyl]amino}-N-(2,2,3,3-tetrafluoro-2,3-dihydro-1,4-benzodioxin-6-yl)-1,3-thiazole-5-carboxamide] | < 500 | < 3000 | < 500 |
| CNC(=O)c1cc(CNc2ncsc2C(=O)Nc2ccc3c(c2)OC(F)(F)O3)ccn1 [Example 1, 4-{[(5-{[(2,2-difluoro-1,3-benzodioxol-5-yl)amino]carbonyl}-1,3-thiazol-4-yl)amino]methyl}-N-methylpyridine-2-carboxamide] | < 500 | < 3000 | < 500 |
| O=C(NCCCCN1CCCC1)c1cc(CNc2ncsc2C(=O)Nc2ccc3c(c2)OC(F)(F)O3)ccn1 [Example 5, 4-{[(5-{[(2,2-difluoro-1,3-benzodioxol-5-yl)amino]carbonyl}-1,3-thiazol-4-yl)amino]methyl}-N-(4-pyrrolidin-1-ylbutyl)pyridine-2-carboxamide] | – | – | < 500 |
| CC(=O)Nc1cc(CNc2ncsc2C(=O)Nc2ccc3c(c2)OC(F)(F)O3)ccn1 [Example 10, 4-([{2-(acetylamino)pyridin-4-yl]methyl}amino)-N-(2,2-difluoro-1,3-benzodioxol-5-yl)-1,3-thiazole-5-carboxamide] | < 500 | < 3000 | < 500 |
| CCNC(=O)Nc1cc(CNc2ncsc2C(=O)Nc2ccc3c(c2)OC(F)(F)C(F)(F)O3)ccn1 [Example 21, 4-{[(2-{[(ethylamino)carbonyl]amino}pyridin-4-yl)methyl]amino}-N-(2,2,3,3-tetrafluoro-2,3-dihydro-1,4-benzodioxin-6-yl)-1,3-thiazole-5-carboxamide] | < 500 | < 3000 | < 500 |
| Nc1cc(CNc2ncsc2C(=O)Nc2ccc3c(c2)OC(F)(F)O3)ccn1 [Example 15, 4-{[(2-aminopyridin-4-yl)methyl]amino}-N-(2,2-difluoro-1,3-benzodioxol-5-yl)-1,3-thiazole-5-carboxamide] | < 500 | – | – |
| CC(=O)OCC(=O)Nc1cc(CNc2ncsc2C(=O)Nc2ccc3c(c2)OC(F)(F)O3)ccn1 [Example 13, 2-[(4-{[(5-{[(2,2-difluoro-1,3-benzodioxol-5-yl)amino]carbonyl}-1,3-thiazol-4-yl)amino]methyl}pyridin-2-yl)amino]-2-oxoethyl acetate] | < 500 | < 3000 | < 500 |
| CNC(=O)Nc1cc(CNc2ncsc2C(=O)Nc2ccc3c(c2)OC(F)(F)O3)ccn1 [Example 18, N-(2,2-difluoro-1,3-benzodioxol-5-yl)-4-{[(2-{[(methylamino)carbonyl]amino}pyridin-4-yl)methyl]amino}-1,3-thiazole-5-carboxamide] | < 500 | < 3000 | < 500 |
| CN(C)CCCCNC(=O)c1cc(CNc2ncsc2C(=O)Nc2ccc3c(c2)OC(F)(F)O3)ccn1 [Example 6, 4-{[(5-{[(2,2-difluoro-1,3-benzodioxol-5-yl)amino]carbonyl}-1,3-thiazol-4-yl)amino]methyl}-N-[4-(dimethylamino)butyl]pyridine-2-carboxamide] | < 500 | – | < 500 |
| CCNC(=O)Nc1cc(CNc2ncsc2C(=O)Nc2ccc3c(c2)OC(F)(F)O3)ccn1 [Example 17, N-(2,2-difluoro-1,3-benzodioxol-5-yl)-4-{[(2-{[(ethylamino)carbonyl]amino}pyridin-4-yl)methyl]amino}-1,3-thiazole-5-carboxamide] | < 500 | < 3000 | < 500 |
| Nc1cc(CNc2ncsc2C(=O)Nc2ccc3c(c2)OC(F)(F)C(F)(F)O3)ccn1 [Example 16, 4-{[(2-aminopyridin-4-yl)methyl]amino}-N-(2,2,3,3-tetrafluoro-2,3-dihydro-1,4-benzodioxin-6-yl)-1,3-thiazole-5-carboxamide] | < 500 | – | < 500 |
| NC(=O)c1cc(CNc2ncsc2C(=O)Nc2ccc3c(c2)OC(F)(F)O3)ccn1 [Example 3, 4-{[(5-{[(2,2-difluoro-1,3-benzodioxol-5-yl)amino]carbonyl}-1,3-thiazol-4-yl)amino]methyl}pyridine-2-carboxamide] | < 500 | – | < 500 |
| CS(=O)(=O)Nc1cc(CNc2ncsc2C(=O)Nc2ccc3c(c2)OC(F)(F)C(F)(F)O3)ccn1 [Example 12, 4-[({2-[(methylsulfonyl)amino]pyridin-4-yl}methyl)amino]-N-(2,2,3,3-tetrafluoro-2,3-dihydro-1,4-benzodioxin-6-yl)-1,3-thiazole-5-carboxamide] | < 500 | – | < 500 |
